Measurements reported in patent publication US12123881B2, “Rap1-Gtp, Rac1-GTP and FMS-like tyrosine kinase 3 ligand (FLT3-L) as biomarkers for early detection of sepsis” (UNM Rainforest Innovations, priority 2018, dated 2024).
Each block holds one molecule with its values, some of them ahead of it.

Key:
Haemophilus influenzae = assay: Clinical course of Patient #10 under antibiotic treatment, tracked by GTPase assay; format: in vivo, human
Description: FIG. 4 G-Trap data readout, showing: A. Histograms of Cyto-Plex™ beads coded with discrete levels of 700 nm fluorescence beads for target GTPases. B&C. Flow cytometry histograms associated with GTPase activity in cell lysates exposed to blood plasma drawn from Patient #10 shown in FIG. 4D on day 0 (pre-infection) and 11 (post infection). D. Quantitative analysis of GTP binding to cytoplex beads in cell lysates treated with plasma drawn from Patient #10: a person was admitted after being crushed by a car. On day 2 a bacterial infection was suspected, thus a sputum culture was ordered and the patient was treated with broad-spectrum antibiotics including vancomycin and piperacillin/tazobactam. […] Patient's blood pressure trended upwards. On day 7, sputum-culture sent on day #2 was determined to be positive for Haemophilus influenzae and antibiotics were changed to 3 days of ceftriaxone (days 7-9). […] The onset of infection was sensitively detected by an increase in GTP binding to Rap1 and Rac1. […] E. Quantitative analysis of GTPase activity induced by Patient #3 plasma (see FIG. 2A-C). F. Quantitative analysis of GTPase activity induced by Patient #13 plasma. […] G Quantitative analysis of GTPase activity induced by Patient #14 plasma; a person admitted with no injuries after a low-speed car collision. […]

ChemR23 = molecular target: T1, ChemR23 (Homo sapiens, UniProt Q99788); assay: G-Trap measurement of Rac1-GTP in cells challenged with Patient #10's plasma, with the ChemR23 antagonist; format: cell-based; conditions: Patient #10 plasma
T1 construct: endogenous in cells
T1 sequence (Q99788 1-373): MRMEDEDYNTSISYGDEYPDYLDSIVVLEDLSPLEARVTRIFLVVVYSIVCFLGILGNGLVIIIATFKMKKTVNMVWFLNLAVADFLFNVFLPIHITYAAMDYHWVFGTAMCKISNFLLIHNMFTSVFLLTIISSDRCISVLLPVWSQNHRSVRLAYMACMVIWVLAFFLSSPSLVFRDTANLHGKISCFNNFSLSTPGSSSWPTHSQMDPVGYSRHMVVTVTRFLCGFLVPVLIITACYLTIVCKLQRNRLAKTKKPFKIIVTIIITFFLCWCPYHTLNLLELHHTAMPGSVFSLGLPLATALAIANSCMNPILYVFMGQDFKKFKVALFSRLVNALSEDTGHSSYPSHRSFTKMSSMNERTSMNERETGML
Description: As shown in FIGS. 2-4, the inventors use flow cytometry multiplex beads that are functionalized with signaling effector molecules of target GTP bound small GTPases to determine changes in the concentration of active GTPases in the blood plasma of trauma patients before and after a clinically diagnosed infection (FIGS. 6&7). In this setting, the beads capture GTP-bound GTPases in lysates of cells that were challenged with plasma samples of study subjects and then quantitatively analyzed on a flow cytometer.^9
Pilot study Proteomic of Patient #10 and #14 plasma samples. Laser densitometer readings of duplicate patient plasma samples (#10, and #14) were computer analyzed for differential expression of proteins as previously described. Spot data showing significant differences between patient samples and controls were determined from adjusted p-values using FDR (and Bonferroni) analysis as previously described. Ten spots were selected for mass spectrometry analysis. The selection was based on the magnitude of change in expression as well as positive correlation to trends in GTPase activity. Preliminary validation assay were performed Spot #130-CPN for patient 10 and Spot #102; Angiotensinogen for Patient 14, because of their overt connection to GTPase activity profile and the immediate availability of assay tools to confirm their presence. The value proposition of the invention as a clinical decision support tool is illustrated in FIG. 6. FIG. 6A panels show the patient's vital signs, which are indeterminate. The illness history of Patient 10 is summarized in example Case #2 above caption and recapitulated in FIG. 6B. […] The rationale for testing CPN in secondary assays was based on the following. CPN is a metallocarboxypeptidase that regulates complement anaphylatoxins (C3a, C4a, and C5a). [2; 3; 4] For clarity, the expression of carboxypeptidase N (CPN) are superimposed over changes in GTP binding to Rac1 and Rap1 (FIG. 6C) for days 8-11. […] We reasoned that the plasma upregulation of CPN was due to Haemophilus influenzae associated LPS. […] [6; 7; 8] […] [5]

ChemR23 (CMKLR1) = molecular target: T2, ChemR23 (CMKLR1) (Homo sapiens, UniProt Q99788); conditions: read-out: Kd, antagonist for ChemR23; cited from earlier work
T2 sequence (Q99788 1-373): T1 sequence (Q99788 1-373)

Rap1 [1] = assay: LPS induced GTP loading of Rap1, GTPase activity measured in cell lysates; format: cell-based; conditions: Vero E cells, exposed for 30 min
Description: (§1) To establish a possible mechanistic link connecting GTPase activity, bacteria virulence factors and innate immune response to bacteria, we measured GTPase activity in cell lysates challenged cells with lipopolysaccharide (LPS) a Gram-negative bacterial endotoxin, which stimulates GTP binding to Rap1 in phagocytes and endothelial cells via CD14^18 (FIGS. 1A&B). […] Given the in vitro associations between Flt-3L and Rac1-GTP, we hypothesized that bacterial infection stimulates coordinate-increases in Flt-3L and Rap1-GTP. Furthermore, based on our data we hypothesized that LPS found in Gram negative bacteria, is likely to synergistically upregulate Rap1-GTP in tandem with Flt-3L which stimulates the upregulation of both Rap1-GTP and Rac-GTP. These findings were subsequently built-upon and extended to a retrospective study of longitudinal samples from trauma patients who developed hospital acquired infections. The human plasma samples were analyzed for 41 common inflammatory mediators using the 41plex HCYTMAG-60K-PX41 Cytokine kit, Human (Millipore, MA). In parallel, GTP loading of RhoA, Rac, and Rap1 was measured in cell lysates after their exposure to the plasma samples. […] We have previously disclosed a method of quantitative multiplex measurements of GTP binding to small GTPases. […]
(§2) C. […] GTPase activity was measured in cell lysates after the cells were exposed to LPS or Flt-3L for 30 min.

Rac1 = assay: Flt-3L induced GTP binding to Rac1, GTPase activity measured in cell lysates; format: cell-based; conditions: cells exposed to Flt-3L
Description: as §1

Rap1 [2] = assay: Flt-3L induced GTP binding to Rap1, GTPase activity measured in cell lysates; format: cell-based; conditions: endothelial cells, exposed for 30 min
Description: as §1, §2

Molecule: CO/N=C(\C(=O)N[C@@H]1C(=O)N2C(C(=O)O)=C(CSc3nc(=O)c(=O)[nH]n3C)CS[C@H]12)c1csc(N)n1 [Ceftriaxone, ceftriaxone]
- treatment outcome indicated by GTPase assay (Haemophilus influenzae; Patient #10, 3 days of treatment (days 7-9), read on day 9): failure of treatment
- clinical outcome (Haemophilus influenzae; Patient #10, restarted on day 14, lasted 7 days): patient recovery

- inhibition of GTPase activity (ChemR23; day 6): 40%
- inhibition of GTPase activity (ChemR23; day 11): 20%
- inhibition of GTPase activity (ChemR23; day 12): 25%
Molecule: C[N+](C)(C)CCC(=O)c1cccc2ccccc12.[I-] [α-NETA]
- Kd (ChemR23 (CMKLR1)): ~6 µM

Molecule: lipopolysaccharide [LPS]
- GTP loading of Rap1 (Rap1 [1]): induced GTP loading of Rap1

B1: Flt-3L: hematopoietic four helical bundle cytokine, Fms-like tyrosine kinase-3 ligand (protein, UniProt P49771 27-235, looked up)
Fms-related tyrosine kinase 3 …: TQDCSFQHSPISSDFAVKIRELSDYLLQDYPVTVASNLQDEELCGGLWRLVLAQRWMERLKTVAGSKMQGLLERVNTEIHFVTKCAFQPPPSCLRFVQTNISRLLQETSEQLVALKPWITRQNFSRCLELQCQPDSSTLPPPWSPRPLEATAPTAPQPPLLLLLLLPVGLLLLAAAWCLHWQRTRRRTPRPGEQVPPVPSPQDLLLVEH
- GTP binding to Rac1 (Rac1): elicited GTP binding to Rap1 and Rac1
- GTP binding to Rap1 (Rap1 [2]): induced GTP binding to Rap1
